Data on 26 compounds can be found in ChEMBL document CHEMBL1201862, “PubChem BioAssay data set” (2004).

Calls of active or inactive are those of the source.

Series [1] has as its target T1, Heat shock factor protein 1 (Mus musculus, UniProt P38532).
T1 sequence (P38532 whole entry): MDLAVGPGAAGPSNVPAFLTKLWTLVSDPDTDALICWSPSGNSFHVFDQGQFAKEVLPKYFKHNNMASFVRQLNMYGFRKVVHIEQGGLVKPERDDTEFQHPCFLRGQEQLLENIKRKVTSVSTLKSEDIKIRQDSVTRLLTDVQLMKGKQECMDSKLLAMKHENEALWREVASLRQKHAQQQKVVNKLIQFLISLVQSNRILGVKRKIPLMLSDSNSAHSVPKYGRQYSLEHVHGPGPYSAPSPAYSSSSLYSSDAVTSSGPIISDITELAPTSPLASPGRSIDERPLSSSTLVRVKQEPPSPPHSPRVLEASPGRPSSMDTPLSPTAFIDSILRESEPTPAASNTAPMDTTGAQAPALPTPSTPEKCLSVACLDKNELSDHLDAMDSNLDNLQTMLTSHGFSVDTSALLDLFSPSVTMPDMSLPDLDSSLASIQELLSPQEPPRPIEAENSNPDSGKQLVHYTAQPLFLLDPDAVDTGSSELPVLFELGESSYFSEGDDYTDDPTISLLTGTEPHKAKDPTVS
Put plainly: inhibition of MG132-induced HSE-luciferase signal, confirmation, cell-based, NIH3T3, luminescence, dose retest (AID 2382).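 Also: NIH3T3 fibroblasts with HSF1-driven luciferase reporter stressed by proteasome inhibitor MG132; luminescence from HSF1-driven luciferase expression after 8 hours of MG132 stress.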 Type of series: functional.

Series [2] has as its target T2, RNA-binding protein pos-1 (Caenorhabditis elegans, UniProt G5EF15).
T2 sequence (G5EF15 whole entry): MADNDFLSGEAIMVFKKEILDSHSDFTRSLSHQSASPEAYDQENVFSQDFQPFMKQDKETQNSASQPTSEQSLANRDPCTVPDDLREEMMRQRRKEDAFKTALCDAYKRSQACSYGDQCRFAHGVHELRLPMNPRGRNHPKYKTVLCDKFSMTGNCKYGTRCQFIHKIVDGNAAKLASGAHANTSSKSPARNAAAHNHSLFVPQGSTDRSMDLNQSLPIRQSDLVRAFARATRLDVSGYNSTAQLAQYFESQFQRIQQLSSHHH
The series can be described thus: inhibitors of POS-1/mex-3 RNA binding, dose response, biochemical, fluorescence polarization (AID 1964).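 Also: purified POS-1 fused to maltose binding protein made in E. coli; potency of compounds blocking POS-1 binding to fluorescent RNA.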

Series [3] addresses T3, Zinc finger protein mex-5 (Caenorhabditis elegans, UniProt Q9XUB2).
T3 sequence (Q9XUB2 whole entry): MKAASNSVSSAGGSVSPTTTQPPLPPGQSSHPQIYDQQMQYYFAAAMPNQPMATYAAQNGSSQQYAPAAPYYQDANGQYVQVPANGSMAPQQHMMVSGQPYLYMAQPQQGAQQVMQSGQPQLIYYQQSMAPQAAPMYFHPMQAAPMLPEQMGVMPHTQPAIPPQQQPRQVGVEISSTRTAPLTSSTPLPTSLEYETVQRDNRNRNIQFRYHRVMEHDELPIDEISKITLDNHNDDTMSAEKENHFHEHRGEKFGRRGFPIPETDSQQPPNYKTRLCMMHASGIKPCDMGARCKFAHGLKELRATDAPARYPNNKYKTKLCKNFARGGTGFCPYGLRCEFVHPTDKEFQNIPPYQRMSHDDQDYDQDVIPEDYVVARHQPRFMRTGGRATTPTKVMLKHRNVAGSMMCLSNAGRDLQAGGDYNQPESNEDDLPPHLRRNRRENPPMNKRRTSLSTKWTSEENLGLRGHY
The series can be described thus: MEX-5/TCR-2 RNA interaction inhibitors, dose response, biochemical, C. elegans, fluorescence polarization (AID 1960).

The target of series [4] is T4, Cytochrome P450 1A2 (Homo sapiens, UniProt P05177).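 Also: PubChem cytochrome P450 panel assay, CYP1A2 panel member.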
T4 sequence (P05177 whole entry): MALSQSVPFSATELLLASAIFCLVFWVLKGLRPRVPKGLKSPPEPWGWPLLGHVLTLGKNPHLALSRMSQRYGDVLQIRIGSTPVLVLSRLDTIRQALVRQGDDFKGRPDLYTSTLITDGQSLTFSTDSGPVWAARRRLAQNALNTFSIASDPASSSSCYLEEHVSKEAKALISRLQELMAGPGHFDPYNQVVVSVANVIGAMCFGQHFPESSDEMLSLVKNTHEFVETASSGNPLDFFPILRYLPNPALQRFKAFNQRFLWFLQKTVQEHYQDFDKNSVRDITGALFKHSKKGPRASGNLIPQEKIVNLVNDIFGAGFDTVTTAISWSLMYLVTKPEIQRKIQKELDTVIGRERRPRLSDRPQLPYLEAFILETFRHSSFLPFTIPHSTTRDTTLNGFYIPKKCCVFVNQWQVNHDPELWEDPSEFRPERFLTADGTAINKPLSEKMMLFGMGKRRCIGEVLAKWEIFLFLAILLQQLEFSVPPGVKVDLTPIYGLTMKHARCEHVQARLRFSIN

Series [5] has as its target T5, Cytochrome P450 3A4 (Homo sapiens, UniProt P08684).
The target in series [6] is Cytochrome P450 2C9 (Homo sapiens, UniProt P11712).
Series [7] concerns INS1. The series can be described thus: beta cell apoptosis inhibitors, cytokine rescue, dose response, luminescence, retest (AID 449756).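 Also: cell death triggered by IL-1 beta plus TNF-alpha plus IFN-gamma mixture; protective hits raise ATP signal compared with cytokine alone wells.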 It counts as functional, cell-based. The conditions noted are these: Rattus norvegicus.
Series [8] can be described thus: THP-1 cell cytotoxicity, dose response, cytotoxicity control for non-replicating M. tuberculosis project (AID 489025). Type of series: functional.
A short description of series [9]: cells. Type of series: functional.
Series [10] addresses T5, Cytochrome P450 3A4. The conditions noted are these: Potency.
In series [11] the target is Cytochrome P450 2C19 (Homo sapiens, UniProt P33261). Put plainly: Cytochrome panel assay with activity outcomes. Panel member name: p450-cyp2c19 Compounds with AC50 equal or less than 10 uM are considered active. Type of series: functional.
Series [12] deals with Cytochrome P450 2D6 (Homo sapiens, UniProt P10635).
The target of series [13] is T6, High affinity choline transporter 1 (Homo sapiens, UniProt Q9GZV3).
T6 sequence (Q9GZV3 whole entry): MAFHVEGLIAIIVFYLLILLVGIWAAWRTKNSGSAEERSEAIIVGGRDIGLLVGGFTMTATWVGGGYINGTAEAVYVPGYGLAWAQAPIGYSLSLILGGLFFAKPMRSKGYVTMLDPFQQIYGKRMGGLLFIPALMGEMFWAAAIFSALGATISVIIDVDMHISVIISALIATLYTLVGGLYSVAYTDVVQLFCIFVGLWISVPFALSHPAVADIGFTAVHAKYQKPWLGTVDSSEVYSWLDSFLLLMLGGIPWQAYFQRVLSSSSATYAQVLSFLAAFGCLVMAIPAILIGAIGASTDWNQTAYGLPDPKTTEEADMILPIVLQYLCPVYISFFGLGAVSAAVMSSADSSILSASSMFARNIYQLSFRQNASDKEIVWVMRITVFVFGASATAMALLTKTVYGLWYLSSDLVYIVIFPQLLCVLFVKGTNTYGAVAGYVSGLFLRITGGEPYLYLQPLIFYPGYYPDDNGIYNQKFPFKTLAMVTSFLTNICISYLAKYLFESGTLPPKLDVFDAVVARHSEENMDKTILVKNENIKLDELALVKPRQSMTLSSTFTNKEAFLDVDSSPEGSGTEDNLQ
The series can be described thus: CHT inhibitors, dose response, cell-based, 5-point CRC, membrane potential dye (AID 504840). Type of series: functional.

Series [14] concerns the target Nonstructural protein 1 (Influenza A virus, UniProt Q194T2). Type of series: functional, Influenza A virus (A/California/07/2009(H1N1)).
Series [15] deals with Delta-type opioid receptor (Homo sapiens, UniProt P41143). Put plainly: Counterscreen for agonists of heterodimerization of the mu 1 (OPRM1) and delta 1 (OPRD1) opioid receptors: Luminescence-based cell-based high throughput dose response assay to identify agonists of OPRD1 homodimerization. [Related pubchem assays (depositor defined):AID504326, AID504355, AID504692, AID504904, AID504905]. Type of series: functional.

For series [16], the target named is 5-hydroxytryptamine receptor 5A (Homo sapiens, UniProt P47898). Put plainly: Counterscreen for agonists of OPRM1-OPRD1 heterodimerization: luminescence-based cell-based high throughput dose response assay to identify agonists of 5-hydroxytryptamine (serotonin) 5A receptor (HTR5A). [Related pubchem assays (depositor defined):AID504326, AID504355, AID504692, AID504904, AID504905]. It counts as functional.

The target of series [17] is Mu-type opioid receptor (Homo sapiens, UniProt P35372). The series can be described thus: Counterscreen for agonists of heterodimerization of the mu 1 (OPRM1) and delta 1 (OPRD1) opioid receptors: Luminescence-based cell-based high throughput dose response assay to identify agonists of OPRM1 homodimerization. Type of series: functional.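 Also: U2OS cells expressing OPRM1 and beta-arrestin as split beta-galactosidase partners.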
Sequence of Mu-type opioid receptor (P35372 whole entry): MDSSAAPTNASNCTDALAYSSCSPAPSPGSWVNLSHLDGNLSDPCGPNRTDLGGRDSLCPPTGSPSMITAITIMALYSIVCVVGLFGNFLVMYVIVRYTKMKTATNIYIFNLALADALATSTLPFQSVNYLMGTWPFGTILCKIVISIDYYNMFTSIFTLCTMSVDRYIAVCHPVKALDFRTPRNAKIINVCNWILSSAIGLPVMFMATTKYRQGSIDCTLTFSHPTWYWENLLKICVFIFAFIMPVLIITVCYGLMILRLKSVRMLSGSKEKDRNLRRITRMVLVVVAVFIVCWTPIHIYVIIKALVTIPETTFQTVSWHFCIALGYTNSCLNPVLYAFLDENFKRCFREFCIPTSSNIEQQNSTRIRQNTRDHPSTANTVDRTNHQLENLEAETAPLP

Sequence of Delta-type opioid receptor (P41143 whole entry): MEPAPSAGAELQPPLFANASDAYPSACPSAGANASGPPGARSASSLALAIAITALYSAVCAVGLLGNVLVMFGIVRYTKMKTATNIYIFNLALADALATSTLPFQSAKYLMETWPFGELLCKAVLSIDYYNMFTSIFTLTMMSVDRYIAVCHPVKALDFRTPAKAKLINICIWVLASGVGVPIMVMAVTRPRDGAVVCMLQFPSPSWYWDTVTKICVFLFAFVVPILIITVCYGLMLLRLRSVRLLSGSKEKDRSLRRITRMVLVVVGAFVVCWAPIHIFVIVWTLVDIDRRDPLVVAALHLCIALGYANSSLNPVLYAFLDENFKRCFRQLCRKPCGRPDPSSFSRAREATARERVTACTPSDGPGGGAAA
T5 sequence (P08684 whole entry): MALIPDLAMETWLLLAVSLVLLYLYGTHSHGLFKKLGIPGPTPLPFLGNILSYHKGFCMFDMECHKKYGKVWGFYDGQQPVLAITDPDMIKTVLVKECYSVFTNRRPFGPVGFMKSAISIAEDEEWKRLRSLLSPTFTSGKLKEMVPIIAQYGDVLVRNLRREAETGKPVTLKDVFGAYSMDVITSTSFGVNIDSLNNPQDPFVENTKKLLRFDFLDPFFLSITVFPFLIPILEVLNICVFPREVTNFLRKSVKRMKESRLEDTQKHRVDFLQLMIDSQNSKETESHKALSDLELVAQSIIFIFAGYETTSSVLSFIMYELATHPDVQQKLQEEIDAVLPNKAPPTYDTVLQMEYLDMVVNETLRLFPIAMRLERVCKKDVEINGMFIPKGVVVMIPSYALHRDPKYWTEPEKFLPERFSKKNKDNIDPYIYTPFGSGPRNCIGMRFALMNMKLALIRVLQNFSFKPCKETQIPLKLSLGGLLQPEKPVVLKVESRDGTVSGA
Sequence of 5-hydroxytryptamine receptor 5A (P47898 whole entry): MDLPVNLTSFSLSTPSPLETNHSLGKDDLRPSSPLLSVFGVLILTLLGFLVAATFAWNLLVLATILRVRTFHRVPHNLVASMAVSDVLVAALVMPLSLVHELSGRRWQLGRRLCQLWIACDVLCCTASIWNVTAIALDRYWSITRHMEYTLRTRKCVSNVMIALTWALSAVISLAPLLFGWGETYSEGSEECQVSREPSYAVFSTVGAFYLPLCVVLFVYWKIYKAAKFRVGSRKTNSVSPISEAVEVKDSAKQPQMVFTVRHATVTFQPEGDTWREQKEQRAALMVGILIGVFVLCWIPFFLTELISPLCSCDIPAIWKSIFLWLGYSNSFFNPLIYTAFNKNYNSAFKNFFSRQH
Sequence of Cytochrome P450 2C9 (P11712 whole entry): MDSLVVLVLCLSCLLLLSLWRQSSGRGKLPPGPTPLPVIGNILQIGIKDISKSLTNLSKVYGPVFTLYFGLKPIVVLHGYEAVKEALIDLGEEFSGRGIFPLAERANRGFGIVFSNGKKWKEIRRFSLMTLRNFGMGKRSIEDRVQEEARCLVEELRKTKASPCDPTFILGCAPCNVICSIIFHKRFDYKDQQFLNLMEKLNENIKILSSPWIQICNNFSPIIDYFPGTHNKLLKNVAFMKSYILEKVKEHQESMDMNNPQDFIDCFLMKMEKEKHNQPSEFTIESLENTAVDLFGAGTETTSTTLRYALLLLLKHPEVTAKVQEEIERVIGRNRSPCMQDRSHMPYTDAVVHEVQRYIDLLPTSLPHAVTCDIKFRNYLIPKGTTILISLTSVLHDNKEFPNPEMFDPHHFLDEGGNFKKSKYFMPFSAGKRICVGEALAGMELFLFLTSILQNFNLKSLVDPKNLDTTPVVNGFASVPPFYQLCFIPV
Sequence of Nonstructural protein 1 (Q194T2 whole entry): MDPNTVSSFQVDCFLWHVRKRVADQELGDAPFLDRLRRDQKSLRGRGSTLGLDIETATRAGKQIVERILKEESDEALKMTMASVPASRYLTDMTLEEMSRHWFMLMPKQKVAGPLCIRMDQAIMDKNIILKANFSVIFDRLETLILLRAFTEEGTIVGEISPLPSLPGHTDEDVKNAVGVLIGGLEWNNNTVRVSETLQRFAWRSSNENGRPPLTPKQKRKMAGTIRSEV
Sequence of Cytochrome P450 2C19 (P33261 whole entry): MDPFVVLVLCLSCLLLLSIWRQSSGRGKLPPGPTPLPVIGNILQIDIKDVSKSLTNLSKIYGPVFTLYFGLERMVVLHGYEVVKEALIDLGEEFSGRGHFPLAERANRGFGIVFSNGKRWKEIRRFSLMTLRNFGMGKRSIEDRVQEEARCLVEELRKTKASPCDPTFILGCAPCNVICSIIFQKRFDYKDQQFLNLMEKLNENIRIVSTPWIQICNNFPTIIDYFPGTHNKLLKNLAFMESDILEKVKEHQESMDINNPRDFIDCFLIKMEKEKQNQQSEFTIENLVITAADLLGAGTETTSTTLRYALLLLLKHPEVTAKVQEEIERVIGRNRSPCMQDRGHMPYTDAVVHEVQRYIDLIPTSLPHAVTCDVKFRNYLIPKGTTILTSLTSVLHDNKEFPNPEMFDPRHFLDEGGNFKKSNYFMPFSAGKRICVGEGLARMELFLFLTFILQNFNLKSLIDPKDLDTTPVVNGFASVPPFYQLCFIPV
Sequence of Cytochrome P450 2D6 (P10635 whole entry): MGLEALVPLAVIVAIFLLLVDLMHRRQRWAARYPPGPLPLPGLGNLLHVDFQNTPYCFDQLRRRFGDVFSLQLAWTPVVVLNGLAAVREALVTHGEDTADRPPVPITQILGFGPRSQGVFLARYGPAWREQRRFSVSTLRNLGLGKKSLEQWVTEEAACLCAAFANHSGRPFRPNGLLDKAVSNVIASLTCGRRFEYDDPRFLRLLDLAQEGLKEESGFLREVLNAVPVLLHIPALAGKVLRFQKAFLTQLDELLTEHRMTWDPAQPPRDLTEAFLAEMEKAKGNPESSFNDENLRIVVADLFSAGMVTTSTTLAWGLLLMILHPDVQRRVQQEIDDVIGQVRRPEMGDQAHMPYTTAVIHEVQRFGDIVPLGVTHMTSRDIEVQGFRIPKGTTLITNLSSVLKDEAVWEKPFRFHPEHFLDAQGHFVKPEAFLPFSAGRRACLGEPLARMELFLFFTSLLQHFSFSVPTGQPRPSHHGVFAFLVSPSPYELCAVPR

On to `CC1(C)CC(=O)C2=C(C1)OC(N)=C(C#N)C2c1ccccc1` (stereo unspecified), for which the results for the EC50 in [1], in [2] and in [3] were > 195 µM (not active), > 300 µM (not active) and > 300 µM (not active), respectively.

In the case of `COc1c2ccoc2nc2c(OC)c(OC[C@H](O)C(C)(C)O)ccc12`, the AC50 is 10 µM (inconclusive) in series [4], 15.8 µM (inconclusive) in series [5] and “inconclusive” in series [6]. Regarding `Cc1[nH]c2ccccc2c1-c1cc(-c2cc(-c3c(C)[nH]c4ccccc34)on2)no1`, in [6], the AC50 result is given as “inconclusive”.

For the compound `CCOc1cc(-c2sc(Nc3cc(C)ccc3OC)n[n+]2-c2ccccc2)ccc1OC`, the AC50 in [7] is 12.9 µM (active). The CC50 in [8] is > 40 µM (active). Further, the IC50 in series [9] was > 50 µM (active).

Regarding `Clc1ccc(C2[C@H]3CN(Cc4ccc(-c5ccccc5)cc4)[C@H](c4ccccc4)C34CC2(c2cccnc2)C4)cn1` (stereo partly specified), the concentration at half-maximal activity (AC50) in [10] was 15.8 µM (inconclusive). Consider `Cc1cc(Cl)ccc1OC(C)C(=O)Nc1ccc(S(=O)(=O)Nc2cnc3ccccc3n2)cc1` (stereo unspecified), for which the AC50 in series [11] (read-out: AC50) is 14.1 µM (inconclusive); in [12], 28.2 µM (inconclusive). For the same compound, the IC50 in series [13] was 13.8 µM (active). As for `O=C(NC(=S)NNC(=O)c1ccccc1O)c1cccc([N+](=O)[O-])c1`, the IC50 in [14] is 15.3 µM (active). `CCCn1c(-c2ccc(F)cc2)nc2c(N3CCN(C)CC3)nc(C)nc21`: in series [10], the AC50 was 12.6 µM (inconclusive). As for `CCOC(=O)c1c(C)c(C(=O)N2CCc3ccccc3C2)c(C)n1CC`, the IC50 in series [13] is 13.8 µM (active).

Regarding `COc1ccc(CCCc2nc3ccccc3[nH]2)cc1`, the half-maximal effective concentration (EC50) in series [2] and in series [3] was > 300 µM (not active) in each case. `Cc1c2ccccc2nc2c(F)c(NC(C)C)c(F)c(F)c12`: the EC50 in [2] and in series [3] was > 300 µM (not active) throughout. Take `COc1ccc(Cc2nnc(NN)nc2O)cc1OC`: in series [14], the IC50 is 15.5 µM (active). Consider `CN(C)S(=O)(=O)Oc1ccccc1C(=O)Nc1cccc(C(F)(F)F)c1`, for which, in series [6], the AC50 result was “inconclusive”.

For `CC(=O)N1c2ccc(S(=O)(=O)NCCC(=O)NC3CCCC(C)C3C)cc2CC1C` (stereo unspecified), the IC50 in series [13] was 13.2 µM (active).

For the compound `CC1=C(/C=C/C(C)=C/C=C/C(C)=C\C=O)C(C)(C)CCC1`, the AC50 in [10] was 31.6 µM (inconclusive). With `CCOC(=O)C1(CC2CCCCO2)CCN(Cc2nc(-c3cccs3)oc2C)CC1` (stereo unspecified), the EC50 in series [15], in series [16] and in [17] was > 92.5 µM (inactive) in each case. Consider `CCc1ccc(NC(=O)Nc2ccc3c(c2)N(C)C(=O)CS3)cc1`, for which the EC50 in [15] was 35.7 µM (inactive); in [16], > 92.5 µM (inactive); in [17], 36.7 µM (inactive).

`Cc1ccc(CC(=O)NCC(c2ccco2)N(C)C)cc1C` (stereo unspecified): the EC50 in series [15], in series [16] and in [17] was > 92.4 µM (inactive) throughout. `O=C(N[C@H]1C/C=C\C[C@H](CC(=O)N(CCO)Cc2ccccc2)C(=O)N[C@H](Cc2c[nH]c3ccccc23)COC1=O)OCC1c2ccccc2-c2ccccc21`: the EC50 in [15], in series [16] and in series [17] was > 92.5 µM (inactive) each time. For the compound `COCCNC(=O)C1CC(c2cccc(OC)c2)=NO1` (stereo unspecified), in series [6], the AC50 entry is given as “inconclusive”. Regarding `CCCN(C(=O)c1cn(CC)c2nc(C)ccc2c1=O)c1c(N)n(Cc2ccccc2)c(=O)[nH]c1=O`, the IC50 in series [13] was 12.6 µM (active). For the compound `CC(=O)N/N=C/c1cc([N+](=O)[O-])ccc1OCCOc1ccccc1`, the AC50 result in [11] and in [6] was “inconclusive” each time. For `CN1CCN(CCC(=O)N/N=C/c2cc([N+](=O)[O-])ccc2O)CC1`, the IC50 in [14] is 17.3 µM (active). Consider `CCOC(=O)c1c(C)cc(O)c(C=O)c1O` [ETHYL HEMATOMMATE], for which, in [10], the AC50 was 39.8 µM (inconclusive).

Take `C/C=C/c1ccc2c(c1)OCO2` [ISOSAFROLE]: the AC50 in series [10] was 25.1 µM (inconclusive). For `COC(=O)[C@@H]1[C@H]2C[C@H]3c4[nH]c5ccccc5c4CCN3C[C@@H]2CC[C@@H]1O` [YOHIMBINE], the values for the EC50 in [2] and in series [3] were > 300 µM (not active) and 103 µM (active), respectively.
